“Also recorded” adds a separate entry of the source. Where a name gives a salt, the structure may show the parent alone. Read-outs that look alike come from different tables or passages of the source.
Key:
TK6 cells [1] = test: In vitro micronucleus assay (In Vitro MICROFLOW kit)
Procedure: The in vitro micronucleus assay is a chromosomal damage test that is widely used to evaluate chemical and/or physical agents for clastogenic and aneugenic activity. […] Furthermore, in the usual conduct of the in vitro micronucleus assay, the discrimination of bona fide genotoxic activity as primarily occurring through a clastogenic or aneugenic mode of action is not readily obtained.
For these experiments, each of the 20 chemicals was tested over closely spaced concentrations, 6 replicate wells per concentration. Three wells were used for the micronucleus analyses, and three wells were used for the several nuclear biomarker assessments of the type described in Example 1. Other endpoints of cytotoxicity were considered, including […], ethidium monoazide bromide (EMA) positive events as an indicator of membrane integrity, tetramethylrhodamine ethyl ester (TMRE) negative cells as an assessment of mitochondrial membrane potential, and ATP levels (using luciferase) as an assessment of overall cell health in the sample. […] Further details are described under Statistical Analyses, as well as Example 4 below.
Those cytotoxicity evaluations were based on a conventional approach for assessing cytotoxicity in genotoxicity tests, that is, relative cell counts (which in the case of the flow cytometry-based In Vitro MICROFLOW® kit is accomplished by measuring nuclei to counting bead ratio or else nuclei to time ratio and expressing these values relative to the mean solvent control value). […] The remaining three wells per concentration were used to accomplish a series of nuclei biomarker readings according to the invention, as well as two other assessments of cytotoxicity—frequency of TMRE-negative cells and ATP levels (via Promega's CELL TITERGLO® kit).

TK6 cells [2] = conditions: human
TK6 cells [3] = conditions: human; remark: listed apart in the source
Procedure: The TK6 cells used in these experiments were from American Type Tissue Collection (ATCC) (Manassas, Va.). Cells were maintained in culture medium at 37° C., 5% CO2, and in a humid atmosphere. Cells were maintained between approximately 1×10^4 and 1×10^6 cells/ml for routine passage.
For these experiments, TK6 cells were treated with solvent (most often DMSO, 1% v/v) and a range of closely spaced test article concentrations. Treatments occurred in wells of a 96-well plate. At the start of treatment, cells were at 2×10^5/ml in a volume of 300 μl per well. Counting beads (PEAK FLOW™) were included in these cultures at a concentration of approximately 1 drop per 10 ml, and served as a means to derive relative nuclei to bead ratios (relative to solvent controls). Continuous treatment occurred for approximately 24 hrs, during which time plates were incubated at 37° C., 5% CO2, and in a humid atmosphere. Each test article concentration was studied in 3 to 6 replicate wells.
The γH2AX endpoint described herein was studied 4 and/or 24-27 hrs after start of treatment. Each of the remaining endpoints were studied at the conclusion of the treatment period, that is 24 to 27 hrs after initiation of exposure to test article (which for this cell line corresponds to approximately 1.5 to 2.0 population doubling times).
At the time of cell harvest (4 hrs and 24 to 27 hrs), cells were resuspended with gentle pipetting and 25 μl aliquots were transferred to wells of a 96 well plate containing 50 μl pre-aliquoted lysis solution.
After incubation at room temperate for at least 5 minutes, samples were analyzed with a dual-laser flow cytometer, 488 nm and 633 nm excitation (FACSCanto II, BD Biosciences, San Jose, Calif.). Instrumentation settings and data acquisition/analysis were controlled with Diva software v6.1.3. […] The BD Biosciences High Throughput Sampler (HTS) attachment was used to automatically analyze each of the samples in the 96 well plate(s). For the majority of these endpoints and experiments, the stop mode was configured such that each well was analyzed for 5 seconds, which usually represented sufficient time to acquire at least 500 NAD-positive nuclei.
Treatments occurred over a range of closely spaced concentrations.

TK6 cells [4] = test: Nuclei to bead ratio (relative cell count, cytotoxicity) by flow cytometry; assay type: cell-based
TK6 cells [5] = assay type: cell-based
Procedure: This experiment highlights the ability of the invention to combine multiple nuclei-associated endpoints into one flow cytometric analysis. For this experiment, log-phase TK6 cells were treated with cisplatin over a wide range of concentrations and then incubated at 37° C. for 24 hours. Each concentration was studied in triplicate wells of a 96 well plate. After 24 hours, well contents were pipetted up and down several times to form homogenous suspensions, and 25 μl per well was added to wells of a new 96 well plate that contained 50 μl of working lysis/labeling/staining solution. This lysis/labeling/staining solution was comprised of 5 μl anti-γH2AX-Alexa® 488/ml, 1 μl anti-phospho-H3-PE/ml, 5 μl anti-cleaved PARP-Alexa® 647/ml, 5 μRNase/ml, […] Absolute Count Bead/50 μl

TK6 cells [6] = test: Cleaved PARP-positive nuclei by flow cytometry; assay type: cell-based; conditions: for PARP-Positive Nuclei (Fold-Increase): 24-27 hours, relative to Control
Source text: (§1) This chemical was also observed to affect cleaved PARP and Caspase 3 levels in nuclei, as evidenced by the higher values of cleaved PARP- and Caspase 3-positive nuclei relative to solvent control wells.

TK6 cells [7] = test: Cleaved caspase 3-positive nuclei by flow cytometry; assay type: cell-based; conditions: for Caspase 3-Positive Nuclei (Fold-Increase): 24-27 hours, relative to Control
Source text: as §1

[8] = TK6 cells, continuous exposure 24-27 hrs, In Vitro MICROFLOW kits
[9] = 24-27 hours after start of treatment

## C[C@@]1(CO)[C@H](O)CC[C@@]2(C)[C@H]1CC[C@H]1C[C@@H]3C[C@@]12CC[C@]3(O)CO [aphidicoline]
TK6 cells [1]; [8]
  in vitro micronucleus results: positive

## [H]/N=C(/N)N/C(=N/[H])NCCc1ccccc1 [phenformin HCl]
TK6 cells [1]; [8]
  in vitro micronucleus results: positive

## CC/C(=C(/CC)c1ccc(O)cc1)c1ccc(O)cc1 [diethylstilbestrol]
TK6 cells [1]; [8]
  in vitro micronucleus results: positive

## COC(=O)Nc1nc2ccccc2[nH]1 [carbendazim]
TK6 cells [1]
  in vitro micronucleus results: positive

## Nc1ccn([C@@H]2O[C@H](CO)[C@@H](O)[C@@H]2O)c(=O)n1 [arabinofuranosyl cytidine]
TK6 cells [1]; [8]
  in vitro micronucleus results: positive

## tunicamycin
TK6 cells [1]; [8]
  in vitro micronucleus results: positive

## COS(C)(=O)=O [MMS, methyl methanesulfonate]
TK6 cells [2]; 2.344 μg/ml
  Phospho-H3+ Nuclei (Fold-Increase): 1.00 Fold-Increase
TK6 cells [2]; 3.125 μg/ml
  Phospho-H3+ Nuclei (Fold-Increase): 0.76 Fold-Increase
TK6 cells [2]; 4.6875 μg/ml
  Phospho-H3+ Nuclei (Fold-Increase): 0.67 Fold-Increase
TK6 cells [2]; 6.25 μg/ml
  Phospho-H3+ Nuclei (Fold-Increase): 0.71 Fold-Increase
TK6 cells [2]; 9.375 μg/ml
  Phospho-H3+ Nuclei (Fold-Increase): 0.76 Fold-Increase
TK6 cells [2]; 12.5 μg/ml
  Phospho-H3+ Nuclei (Fold-Increase): 0.65 Fold-Increase
TK6 cells [3]; 2.344 μg/ml
  γH2AX Fluorescence (Fold-Increase): 3.13 Fold-Increase
TK6 cells [3]; 3.125 μg/ml
  γH2AX Fluorescence (Fold-Increase): 4.11 Fold-Increase
TK6 cells [3]; 4.6875 μg/ml
  γH2AX Fluorescence (Fold-Increase): 4.36 Fold-Increase
TK6 cells [3]; 6.25 μg/ml
  γH2AX Fluorescence (Fold-Increase): 4.92 Fold-Increase
TK6 cells [3]; 9.375 μg/ml
  γH2AX Fluorescence (Fold-Increase): 4.79 Fold-Increase
TK6 cells [3]; 12.5 μg/ml
  γH2AX Fluorescence (Fold-Increase): 4.80 Fold-Increase
TK6 cells [4]
  nuclei to bead ratios (effect in words): concentration-dependent reductions
TK6 cells [4]; human, 2.344 μg/ml
  Nuclei to Bead Ratio (% of Control): 88 % of Control
TK6 cells [4]; human, 3.125 μg/ml
  Nuclei to Bead Ratio (% of Control): 87 % of Control
TK6 cells [4]; human, 4.6875 μg/ml
  Nuclei to Bead Ratio (% of Control): 83 % of Control
TK6 cells [4]; human, 6.25 μg/ml
  Nuclei to Bead Ratio (% of Control): 78 % of Control
TK6 cells [4]; human, 9.375 μg/ml
  Nuclei to Bead Ratio (% of Control): 64 % of Control
TK6 cells [4]; human, 12.5 μg/ml
  Nuclei to Bead Ratio (% of Control): 58 % of Control
TK6 cells [1]
  in vitro micronucleus results: positive

## O=c1[nH]cc(F)c(=O)[nH]1 [5-fluorouracil]
TK6 cells [1]
  in vitro micronucleus results: positive

## COc1cc([C@@H]2c3cc4c(cc3[C@@H](O[C@@H]3O[C@@H]5CO[C@@H](C)O[C@H]5[C@H](O)[C@H]3O)[C@H]3COC(=O)[C@H]23)OCO4)cc(OC)c1O [etoposide]
TK6 cells [1]
  in vitro micronucleus results: positive

## NC(=O)NO [hydroxyurea]
TK6 cells [1]
  in vitro micronucleus results: positive

## N.N.[Cl][Pt][Cl] [Cisplatin, cisplatin]
TK6 cells [1]
  in vitro micronucleus results: positive
TK6 cells [5]
  absolute and relative nuclei counts (effect in words): reduced in a cisplatin concentration-dependent manner
  anti-cleaved PARP positive chromatin (effect in words): increased in a cisplatin concentration-dependent manner
  anti-phospho-H3 positive nuclei (effect in words): reduced in a cisplatin concentration-dependent manner
  other changes to cell cycle (effect in words): accumulation of cells in the G2/M phase
  shift in anti-γH2AX-associated fluorescence (effect in words): increased in a cisplatin concentration-dependent manner

## N#CC(C#N)=NNc1cccc(Cl)c1 [CCCP, carbonyl cyanide m-chlorophenyl hydrazone]
TK6 cells [6]; [9]
  cleaved PARP-positive nuclei relative to solvent control wells (effect in words): higher values
TK6 cells [6]; CCCP 3.125 μM
  PARP-Positive Nuclei (Fold-Increase): 4.90 Fold-Increase
TK6 cells [6]; CCCP 4.6875 μM
  PARP-Positive Nuclei (Fold-Increase): 8.60 Fold-Increase
TK6 cells [6]; CCCP 6.25 μM
  PARP-Positive Nuclei (Fold-Increase): 12.1 Fold-Increase
TK6 cells [6]; CCCP 9.375 μM
  PARP-Positive Nuclei (Fold-Increase): 20.75 Fold-Increase
TK6 cells [6]; CCCP 12.5 μM
  PARP-Positive Nuclei (Fold-Increase): 34.45 Fold-Increase
TK6 cells [7]; [9]
  cleaved Caspase 3-positive nuclei relative to solvent control (effect in words): visibly increased; also recorded: higher values
TK6 cells [7]; CCCP 3.125 μM
  Caspase 3-Positive Nuclei (Fold-Increase): 2.63 Fold-Increase
TK6 cells [7]; CCCP 4.6875 μM
  Caspase 3-Positive Nuclei (Fold-Increase): 4.33 Fold-Increase
TK6 cells [7]; CCCP 6.25 μM
  Caspase 3-Positive Nuclei (Fold-Increase): 5.86 Fold-Increase
TK6 cells [7]; CCCP 9.375 μM
  Caspase 3-Positive Nuclei (Fold-Increase): 9.13 Fold-Increase
TK6 cells [7]; CCCP 12.5 μM
  Caspase 3-Positive Nuclei (Fold-Increase): 18.83 Fold-Increase
TK6 cells [4]; CCCP 3.125 μM, TK6 cells, 24-27 hours after start of treatment
  Nuclei to Bead Ratio (% of Control): 79 % of Control
TK6 cells [4]; CCCP 4.6875 μM, TK6 cells, 24-27 hours after start of treatment
  Nuclei to Bead Ratio (% of Control): 69 % of Control
TK6 cells [4]; CCCP 6.25 μM, TK6 cells, 24-27 hours after start of treatment
  Nuclei to Bead Ratio (% of Control): 64 % of Control
TK6 cells [4]; CCCP 9.375 μM, TK6 cells, 24-27 hours after start of treatment
  Nuclei to Bead Ratio (% of Control): 59 % of Control
TK6 cells [4]; CCCP 12.5 μM, TK6 cells, 24-27 hours after start of treatment
  Nuclei to Bead Ratio (% of Control): 50 % of Control
TK6 cells [4]; TK6 cells, range of closely spaced concentrations, 24-27 hours, indicative of fewer cells and therefore cytotoxicity
  nuclei to bead ratios (effect in words): concentration-dependent reductions
TK6 cells [1]; [8]
  in vitro micronucleus results: positive

## COc1ccc(C2=N[C@@H](c3ccc(Cl)cc3)[C@@H](c3ccc(Cl)cc3)N2C(=O)N2CCNC(=O)C2)c(OC(C)C)c1 [nutlin-3]
TK6 cells [1]; [8]
  in vitro micronucleus results: positive

## CC[C@@]1(O)C(=O)OCc2c1cc1n(c2=O)Cc2cc3ccccc3nc2-1 [camptothecin]
TK6 cells [1]; [8]
  in vitro micronucleus results: positive

## CC[C@]1(O)C[C@@H]2CN(CCc3c([nH]c4ccccc34)[C@@](C(=O)OC)(c3cc4c(cc3OC)N(C)[C@H]3[C@@](O)(C(=O)OC)[C@H](OC(C)=O)[C@]5(CC)C=CCN6CC[C@]43[C@@H]65)C2)C1 [Vinblastine, vinblastine]
TK6 cells [2]; 0.3 ng/ml
  Phospho-H3+ Nuclei (Fold-Increase): .86 Fold-Increase
TK6 cells [2]; 0.4 ng/ml
  Phospho-H3+ Nuclei (Fold-Increase): .86 Fold-Increase
TK6 cells [2]; 0.6 ng/ml
  Phospho-H3+ Nuclei (Fold-Increase): 1.23 Fold-Increase
TK6 cells [2]; 0.8 ng/ml
  Phospho-H3+ Nuclei (Fold-Increase): 2.11 Fold-Increase
TK6 cells [2]; 1.2 ng/ml
  Phospho-H3+ Nuclei (Fold-Increase): 4.85 Fold-Increase
TK6 cells [2]; 1.6 ng/ml
  Phospho-H3+ Nuclei (Fold-Increase): 5.41 Fold-Increase
TK6 cells [4]
  nuclei to bead ratios (effect in words): concentration-dependent reductions
TK6 cells [4]; human, 0.3 ng/ml
  Nuclei to Bead Ratio (% of Control): 98 % of Control
TK6 cells [4]; human, 0.4 ng/ml
  Nuclei to Bead Ratio (% of Control): 97 % of Control
TK6 cells [4]; human, 0.6 ng/ml
  Nuclei to Bead Ratio (% of Control): 86 % of Control
TK6 cells [4]; human, 0.8 ng/ml
  Nuclei to Bead Ratio (% of Control): 81 % of Control
TK6 cells [4]; human, 1.2 ng/ml
  Nuclei to Bead Ratio (% of Control): 71 % of Control
TK6 cells [4]; human, 1.6 ng/ml
  Nuclei to Bead Ratio (% of Control): 58 % of Control
TK6 cells [1]
  in vitro micronucleus results: positive

From US11016101B2, “Simplified nuclei analysis platform and biomarker matrix that supports genotoxic mode of action determinations” (Litron Laboratories, Ltd., priority 2013, dated 2021)
